Source: patent publication US20090239841A1, “Diaryl Ureas as CB1 Antagonists” (priority 2004, published 2009)

Target: T1, hCB1 (Homo sapiens, UniProt P21554)
T1 construct: made in house; host or cells: Sf9 insect cells (baculovirus), P2 membranes
Test: Agonist-induced GTP binding (GTPγ35S) assay at CB1, Example 8
Type: biochemical
Conditions: IC50 at CB1, determined as described in Example 8; read-out: IC50
Outline: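 Membranes from Sf9 cells co-expressing hCB1 and heterotrimeric G-protein (10 μg protein) in Tris pH 7.4 buffer with 5 μM GDP. Test compounds (10^−10–10^−5 M) competed against 1 nM CP55,940 with […] GTPγ35S, 60 min at room temperature. Filter-bound radioactivity by scintillation, expressed as percent above basal.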

T1 sequence (P21554 whole entry): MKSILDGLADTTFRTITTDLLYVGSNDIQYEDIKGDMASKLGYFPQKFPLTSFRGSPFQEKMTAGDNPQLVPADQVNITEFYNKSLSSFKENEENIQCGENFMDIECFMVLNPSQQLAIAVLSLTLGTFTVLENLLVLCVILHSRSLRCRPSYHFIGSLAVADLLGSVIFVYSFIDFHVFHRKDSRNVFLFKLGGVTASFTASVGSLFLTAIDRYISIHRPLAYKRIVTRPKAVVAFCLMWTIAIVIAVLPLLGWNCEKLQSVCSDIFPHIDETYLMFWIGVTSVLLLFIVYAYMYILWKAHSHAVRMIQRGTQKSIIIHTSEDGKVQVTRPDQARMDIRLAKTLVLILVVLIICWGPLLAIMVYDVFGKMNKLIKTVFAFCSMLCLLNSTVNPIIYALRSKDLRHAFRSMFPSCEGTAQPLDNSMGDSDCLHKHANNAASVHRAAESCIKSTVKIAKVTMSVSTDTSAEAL

IC50 [µM] | Structure (SMILES)
< 2 | CCc1ccc(NC(=O)Nc2cccc(C)c2)cc1 [Compound 289, N-(4-ethylphenyl)-N′-(3-methylphenyl)urea]
< 2 | CCc1ccc(NC(=O)Nc2ccc(C)cc2)cc1 [Compound 290, N-(4-ethylphenyl)-N′-(4-methylphenyl)urea]
< 2 | CCCc1ccc(NC(=O)Nc2ccccc2)cc1 [Compound 291, N-phenyl-N′-(4-propylphenyl)urea]
< 2 | CCCc1ccc(NC(=O)Nc2cccc(C)c2)cc1 [Compound 292, 1-(3-methylphenyl)-3-(4-propylphenyl)urea]
< 2 | CCCc1ccc(NC(=O)Nc2ccc(C)cc2)cc1 [Compound 293, N-(4-methylphenyl)-N′-(4-propylphenyl)urea]
< 2 | CCCCc1ccc(NC(=O)Nc2ccccc2)cc1 [Compound 294, N-(4-butylphenyl)-N′-phenylurea]
< 2 | CCCCc1ccc(NC(=O)Nc2ccc(C)cc2)cc1 [Compound 295, N-(4-butylphenyl)-N′-(4-methylphenyl)urea]
< 2 | Cc1cccc(NC(=O)Nc2cccc(OC(C)C)c2)c1 [Compound 297, 1-(3-isopropoxyphenyl)-3-(3-methylphenyl)urea]
< 2 | Cc1ccc(NC(=O)Nc2cccc(OC(C)C)c2)cc1 [Compound 298, N-(3-isopropoxyphenyl)-N′-(4-methylphenyl)urea]
< 2 | Cc1ccc(NC(=O)Nc2ccc(C(C)C)cc2)cc1 [Compound 300, 1-(4-isopropylphenyl)-3-(4-methylphenyl)urea]
< 2 | CCOc1ccc(NC(=O)Nc2cccc(C)c2)cc1 [Compound 302, 1-(4-ethoxyphenyl)-3-(3-methylphenyl)urea]
< 2 | CCCOc1ccc(NC(=O)Nc2ccccc2)cc1 [Compound 303, N-phenyl-N′-(4-propoxyphenyl)urea]
< 2 | CCCOc1ccc(NC(=O)Nc2cccc(C)c2)cc1 [Compound 304, 1-(3-methylphenyl)-3-(4-propoxyphenyl)urea]
< 2 | O=C(Nc1ccccc1)Nc1ccc(OC(F)F)cc1 [Compound 306, N-[4-(difluoromethoxy)phenyl]-N′-phenylurea]
< 2 | Cc1cccc(NC(=O)Nc2ccc(OC(F)F)cc2)c1 [Compound 307, N-[4-(difluoromethoxy)phenyl]-N′-(3-methylphenyl)urea]
< 2 | Cc1ccc(NC(=O)Nc2ccc(OC(F)F)cc2)cc1 [Compound 308, N-[4-(difluoromethoxy)phenyl]-N′-(4-methylphenyl)urea]
< 2 | Cc1ccc(NC(=O)Nc2ccc(C)c(F)c2)cc1 [Compound 312, 1-(3-fluoro-4-methylphenyl)-3-(4-methylphenyl)urea]
< 2 | Cc1ccc(NC(=O)Nc2ccc(Cl)cc2)cc1 [Compound 314, N-(4-chlorophenyl)-N′-(4-methylphenyl)urea]
< 2 | O=C(Nc1ccccc1)Nc1ccc2c(c1)CCC2 [Compound 316, 1-(2,3-dihydro-1H-inden-5-yl)-3-phenylurea]
< 2 | Cc1cccc(NC(=O)Nc2ccc(N3CCOCC3)c(Cl)c2)c1 [Compound 318, 1-(3-chloro-4-morpholin-4-ylphenyl)-3-(3-methylphenyl)urea]
< 2 | Cc1cccc(NC(=O)Nc2ccc(-n3cnc(Cl)c3Cl)cc2)c1 [Compound 319, 1-[4-(4,5-dichloro-1H-imidazol-1-yl)phenyl]-3-(3-methylphenyl)urea]
< 2 | Cc1ccc(NC(=O)Nc2ccc(-n3cnc(Cl)c3Cl)cc2)cc1 [Compound 320, 1-[4-(4,5-dichloro-1H-imidazol-1-yl)phenyl]-3-(4-methylphenyl)urea]
< 2 | O=C(Nc1ccccc1)Nc1ccc(N2CCCCC2)cc1 [Compound 321, 1-phenyl-3-(4-piperidin-1-ylphenyl)urea]
< 2 | Cc1ccc(NC(=O)Nc2ccc(N3CCCCC3)cc2)cc1 [Compound 322, 1-(4-methylphenyl)-3-(4-piperidin-1-ylphenyl)urea]
< 2 | Cc1ccc2nc(NC(=O)Nc3ccccc3)sc2c1 [Compound 323, 1-(6-methyl-1,3-benzothiazol-2-yl)-3-phenylurea]

Same assay, conditions: Table II; IC50 at CB1, GTP binding with 1 nM CP55,940; read-out: IC50

IC50 [µM] | Structure (SMILES)
< 2 | O=C(Nc1ccc(Cl)cc1)Nc1cccc(OC(F)F)c1 [Compound 256, N-(4-chlorophenyl)-N′-[3-(difluoromethoxy)phenyl]urea]
< 2 | O=C(Nc1ccc(Cl)cc1)Nc1ccc(OC(F)F)cc1 [Compound 257, N-(4-chlorophenyl)-N′-[4-(difluoromethoxy)phenyl]urea]
< 2 | COc1cccc(NC(=O)Nc2ccc(C(C)=O)cc2)c1 [Compound 258, N-(4-acetylphenyl)-N′-(3-methoxyphenyl)urea]
< 2 | COc1ccc(NC(=O)Nc2cccc(C#N)c2)cc1 [Compound 259, N-(3-cyanophenyl)-N′-(4-methoxyphenyl)urea]
< 2 | COc1ccc(NC(=O)Nc2ccc(C(C)=O)cc2)cc1 [Compound 260, N-(4-acetylphenyl)-N′-(4-methoxyphenyl)urea]
< 2 | CCOc1cccc(NC(=O)Nc2ccc(C#N)cc2)c1 [Compound 261, N-(4-cyanophenyl)-N′-(3-ethoxyphenyl)urea]
< 2 | CCOc1cccc(NC(=O)Nc2cccc(C#N)c2)c1 [Compound 262, N-(3-cyanophenyl)-N′-(3-ethoxyphenyl)urea]
< 2 | CCOc1cccc(NC(=O)Nc2ccc(C(C)=O)cc2)c1 [Compound 263, N-(4-acetylphenyl)-N′-(3-ethoxyphenyl)urea]
< 2 | CCOc1ccc(NC(=O)Nc2cccc(C#N)c2)cc1 [Compound 265, N-(3-cyanophenyl)-N′-(4-ethoxyphenyl)urea]
< 2 | CCOc1ccc(NC(=O)Nc2cccc(C(C)=O)c2)cc1 [Compound 266, N-(3-acetylphenyl)-N′-(4-ethoxyphenyl)urea]
< 2 | CCOc1ccc(NC(=O)Nc2ccc(C(C)=O)cc2)cc1 [Compound 267, N-(4-acetylphenyl)-N′-(4-ethoxyphenyl)urea]
< 2 | COCc1ccc(NC(=O)Nc2cccc(C#N)c2)cc1 [Compound 269, N-(3-cyanophenyl)-N′-[4-(methoxymethyl)phenyl]urea]
< 2 | COCc1ccc(NC(=O)Nc2cccc(C(C)=O)c2)cc1 [Compound 270, N-(3-acetylphenyl)-N′-[4-(methoxymethyl)phenyl]urea]
< 2 | COCc1ccc(NC(=O)Nc2ccc(C(C)=O)cc2)cc1 [Compound 271, N-(4-acetylphenyl)-N′-[4-(methoxymethyl)phenyl]urea]
< 2 | CCCOc1ccc(NC(=O)Nc2ccc(C#N)cc2)cc1 [Compound 272, N-(4-cyanophenyl)-N′-(4-propoxyphenyl)urea]
< 2 | CCCOc1ccc(NC(=O)Nc2cccc(C#N)c2)cc1 [Compound 273, N-(3-cyanophenyl)-N′-(4-propoxyphenyl)urea]

IC50 [µM] | Structure (SMILES)
< 2 | CCCOc1ccc(NC(=O)Nc2cccc(C(C)=O)c2)cc1 [Compound 274, N-(3-acetylphenyl)-N′-(4-propoxyphenyl)urea]
< 2 | CCCOc1ccc(NC(=O)Nc2ccc(C(C)=O)cc2)cc1 [Compound 275, N-(4-acetylphenyl)-N′-(4-propoxyphenyl)urea]
< 2 | CC(C)Oc1cccc(NC(=O)Nc2cccc(C#N)c2)c1 [Compound 276, N-(3-cyanophenyl)-N′-(3-isopropoxyphenyl)urea]
< 2 | CC(=O)c1cccc(NC(=O)Nc2cccc(OC(C)C)c2)c1 [Compound 277, N-(3-acetylphenyl)-N′-(3-isopropoxyphenyl)urea]
< 2 | CC(=O)c1ccc(NC(=O)Nc2cccc(OC(C)C)c2)cc1 [Compound 278, N-(4-acetylphenyl)-N′-(3-isopropoxyphenyl)urea]
< 2 | CC(C)Oc1ccc(NC(=O)Nc2ccc(C#N)cc2)cc1 [Compound 279, N-(4-cyanophenyl)-N′-(4-isopropoxyphenyl)urea]
< 2 | CC(C)Oc1ccc(NC(=O)Nc2cccc(C#N)c2)cc1 [Compound 280, N-(3-cyanophenyl)-N′-(4-isopropoxyphenyl)urea]
< 2 | CC(=O)c1cccc(NC(=O)Nc2ccc(OC(C)C)cc2)c1 [Compound 281, N-(3-acetylphenyl)-N′-(4-isopropoxyphenyl)urea]
< 2 | CC(=O)c1ccc(NC(=O)Nc2ccc(OC(C)C)cc2)cc1 [Compound 282, N-(4-acetylphenyl)-N′-(4-isopropoxyphenyl)urea]
< 2 | N#Cc1ccc(NC(=O)Nc2cccc(OC(F)F)c2)cc1 [Compound 283, N-(4-cyanophenyl)-N′-[3-(difluoromethoxy)phenyl]urea]
< 2 | N#Cc1cccc(NC(=O)Nc2cccc(OC(F)F)c2)c1 [Compound 284, N-(3-cyanophenyl)-N′-[3-(difluoromethoxy)phenyl]urea]
< 2 | CC(=O)c1cccc(NC(=O)Nc2cccc(OC(F)F)c2)c1 [Compound 285, N-(3-acetylphenyl)-N′-[3-(difluoromethoxy)phenyl]urea]
< 2 | CC(=O)c1ccc(NC(=O)Nc2cccc(OC(F)F)c2)cc1 [Compound 286, N-(4-acetylphenyl)-N′-[3-(difluoromethoxy)phenyl]urea]
< 2 | N#Cc1ccc(NC(=O)Nc2ccc(OC(F)F)cc2)cc1 [Compound 287, N-(4-cyanophenyl)-N′-[4-(difluoromethoxy)phenyl]urea]
< 2 | CC(=O)c1ccc(NC(=O)Nc2ccc(OC(F)F)cc2)cc1 [Compound 288, N-(4-acetylphenyl)-N′-[4-(difluoromethoxy)phenyl]urea]

Structure (SMILES) | IC50 [µM]
CCOc1ccc(NC(=O)Nc2ccc(C#N)cc2)cc1 [Compound 264, N-(4-cyanophenyl)-N′-(4-ethoxyphenyl)urea] | < 2
